Test system: transient middle cerebral artery occlusion (MCAO) in SD rats
Test: Transient (90 min.) middle cerebral artery occlusion (MCAO) in SD rats
Type: in vivo, rat
Details: 90 min MCAO, 25 mg/kg intravenous bolus at occlusion, then 50 mg/kg subcutaneous repeatedly, histology at 3 days, FIG. 2
Text: 1. Transient focal cerebral ischemia: A rodent model of transient middle cerebral artery occlusion (MCA) occlusion was used to determine the effect of a representative GSK3 inhibitor compound of the invention, 6-[(2-{[6-(2,4-dichlorophenyl)-5-imidazolyl-2-pyridyl]amino}ethyl)amino]pyridine-3-carbonitrile (CT 99025) in the inhibition of ischemic damage due to stroke. Ischemia was induced using an occluding intraluminal suture model (M. A. Yenari et al., “Time-course and treatment response with SNX-111, an N-type calcium channel blocker, in a rodent model of focal cerebral ischemia using diffusion-weighted MRI,” Brain Res 739:3645 (1996)). Animals were anesthetized with 3% halothane (1-2% maintenance) via face mask. Depth of anesthesia was monitored every 15 minutes by checking toe pinch, and the maintenance halothane levels were adjusted accordingly. […] During the surgical procedure, the following parameters were monitored and maintained in the normal physiological range: mean arterial blood pressure (MABP, measured via a femoral artery catheter), respiratory rate, rectal temperature, heart rate, arterial blood gases, blood glucose, and hematocrit. […]
3. […] Regions without staining were delineated using a computer assisted image analysis program (MCID, St. Catherine's, Ottawa), and expressed as the percent injury of the ipsilateral hemisphere. […]

6-[(2-{[6-(2,4-dichlorophenyl)-5-imidazolyl-2-pyridyl]amino}ethyl)amino]pyridine-3-carbonitrile [CT 99025]
ischemic area (percent injury of the ipsilateral hemisphere) versus vehicle control: substantially reduced

From patent US20050203059A1, “Methods and compositions for treatment of ischemia” (priority 2002, published 2005)
